Measured values published in the supplement of paper PMC6045584.
± gives the standard deviation of the averaged measurements.

Assays:
CARBOPLATIN [1] = compound: T1, O=C(O)C1(C(=O)O)CCC1.[NH2-].[NH2-].[Pt+2] [CARBOPLATIN]; experiment: surviving fraction relative to DMSO-only wells; higher = less growth inhibition; details: exposure time: 5 days
Method in brief: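 After seeding at 250–500 cells per well in 384-well plates and a 24-hour wait, log-phase tumour cell lines were exposed without interruption for five days to inhibitors at 0.5, 1, 5, 10, 50, 100, 500 and 1000 nM. CellTiter-Glo luminescence was recorded after 10 minutes at room temperature. Viability is reported as surviving fraction, the luminescence normalised to the median of DMSO-only wells.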

[2] = compound: CC(=O)c1c(C)c2cnc(Nc3ccc(N4CCNCC4)cn3)nc2n(C2CCCC2)c1=O; experiment: area under dose-response curve of surviving fraction (unscaled, Aref=0) (surviving fraction x log10(nM)); higher = more resistant; details: exposure time: 5 days; dose range 0.5-1000 nM
Method in brief: (§1)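 Three screens per tumour cell line were run in 384-well plates at eight inhibitor concentrations from 0.5 to 1000 nM over five days. Surviving fractions, from CellTiter-Glo luminescence normalised to DMSO-only wells, were fitted with 3-parameter logistic curves in the drc R package. The reported area under the curve is the unscaled activity area. It spans log10 dose, and Aref is 0.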

CAMPTOTHECIN = compound: CC[C@@]1(O)C(=O)OCc2c1cc1n(c2=O)Cc2cc3ccccc3nc2-1 [CAMPTOTHECIN]; experiment: as above; details: exposure time: 5 days; dose range 0.5-1000 nM
Method in brief: as §1

[3] = compound: CC(=O)NCC(=O)N1[C@@H]2CC[C@H]1c1ccc(Nc3ncc(C(F)(F)F)c(NC4CCC4)n3)cc12; experiment: as above; details: exposure time: 5 days; dose range 0.5-1000 nM
Method in brief: as §1

CARBOPLATIN [4] = compound: T1, CARBOPLATIN; experiment: as above; details: exposure time: 5 days; dose range 0.5-1000 nM
Method in brief: as §1

PACLITAXEL = compound: CC(=O)O[C@H]1C(=O)[C@@]2(C)[C@H]([C@H](OC(=O)c3ccccc3)[C@]3(O)C[C@H](OC(=O)[C@H](O)[C@@H](NC(=O)c4ccccc4)c4ccccc4)C(C)=C1C3(C)C)[C@]1(OC(C)=O)CO[C@@H]1C[C@@H]2O [PACLITAXEL]; experiment: as above; details: exposure time: 5 days; dose range 0.5-1000 nM
Method in brief: as §1

CELECOXIB = compound: Cc1ccc(-c2cc(C(F)(F)F)nn2-c2ccc(S(N)(=O)=O)cc2)cc1 [CELECOXIB]; experiment: as above; details: exposure time: 5 days; dose range 0.5-1000 nM
Method in brief: as §1

GEFITINIB = compound: COc1cc2ncnc(Nc3ccc(F)c(Cl)c3)c2cc1OCCCN1CCOCC1 [GEFITINIB]; experiment: as above; details: exposure time: 5 days; dose range 0.5-1000 nM
Method in brief: as §1

YM155 = compound: COCC[n+]1c2c(n(Cc3cnccn3)c1C)C(=O)c1ccccc1C2=O [YM155]; experiment: as above; details: exposure time: 5 days; dose range 0.5-1000 nM
Method in brief: as §1

OSI-906 = compound: C[C@]1(O)C[C@@H](c2nc(-c3ccc4ccc(-c5ccccc5)nc4c3)c3c(N)nccn32)C1 [OSI-906]; experiment: as above; details: exposure time: 5 days; dose range 0.5-1000 nM
Method in brief: as §1

Test System	surviving fraction (CARBOPLATIN [1]; 0.5 nM)	surviving fraction (CARBOPLATIN [1]; 1 nM)	surviving fraction (CARBOPLATIN [1]; 5 nM)	surviving fraction (CARBOPLATIN [1]; 10 nM)	surviving fraction (CARBOPLATIN [1]; 50 nM)	surviving fraction (CARBOPLATIN [1]; 100 nM)	surviving fraction (CARBOPLATIN [1]; 500 nM)	surviving fraction (CARBOPLATIN [1]; 1000 nM)	area under dose-response curve [2]	area under dose-response curve (CAMPTOTHECIN)	area under dose-response curve [3]	area under dose-response curve (CARBOPLATIN [4])	area under dose-response curve (PACLITAXEL)	area under dose-response curve (CELECOXIB)	area under dose-response curve (GEFITINIB)	area under dose-response curve (YM155)	area under dose-response curve (OSI-906)
SUM44 BREAST	1.15 ± 0.28	1.05 ± 0.14	1.16 ± 0.23	1.01 ± 0.2	1.28 ± 0.27	1.11 ± 0.1	1.2 ± 0.25	1.07 ± 0.079	3.41	2.82	3.75	3.73	1.04	4.41	4.14	2.05	–
VCAP PROSTATE	1.04 ± 0.067	0.996 ± 0.04	1.11 ± 0.072	1.09 ± 0.11	1.05 ± 0.13	1.21 ± 0.086	1.05 ± 0.07	1.04 ± 0.18	–	1.76	2.52	3.55	0.687	–	3.75	0.945	2.78
CME SYNOVIAL	1.25 ± 0.15	1.36 ± 0.039	1.4 ± 0.047	1.48 ± 0.061	1.35 ± 0.16	1.42 ± 0.024	1.3 ± 0.14	1.39 ± 0.082	4.13	0.288	2.49	4.52	1.47	4.61	–	1.3	–
S68 BREAST	1.08 ± 0.28	1.01 ± 0.082	0.9 ± 0.16	1.4 ± 0.15	1.22 ± 0.6	1.14 ± 0.38	1.11 ± 0.21	1.29 ± 0.11	–	1.05	2.38	3.8	0.758	3.75	2.99	1.4	2.83
BT20 BREAST	1.11 ± 0.04	1.19 ± 0.12	1.39 ± 0.49	1.24 ± 0.04	1.2 ± 0.088	1.29 ± 0.14	1.33 ± 0.16	1.11 ± 0.069	–	0.907	2.05	–	0.614	3.78	3.62	0.651	2.91
VP229 BREAST	1.12 ± 0.14	1.05 ± 0.022	1.11 ± 0.12	0.961 ± 0.088	1.17 ± 0.21	1.05 ± 0.025	1.19 ± 0.096	0.956 ± 0.14	–	1.81	2.78	3.55	1.56	4.03	2.63	1.79	2.77
SG31 HEADNECK	1.15 ± 0.14	1.21 ± 0.11	0.963 ± 0.12	1.12 ± 0.24	1.16 ± 0.1	1.06 ± 0.19	1.17 ± 0.083	1.21 ± 0.14	3.36	1.58	2.85	3.73	1.44	4.19	–	1.96	2.94
HS57T BREAST	1.03 ± 0.015	1.08 ± 0.11	1.09 ± 0.028	1.12 ± 0.029	1.11 ± 0.084	1.08 ± 0.033	1.07 ± 0.092	1.05 ± 0.054	–	–	–	–	–	–	–	–	–
LM7 BONE	1.06 ± 0.017	1.07 ± 0.051	1.09 ± 0.076	1.05 ± 0.028	1.11 ± 0.064	1.08 ± 0.094	1 ± 0.028	1.02 ± 0.018	3.43	0.895	2.54	–	0.746	3.39	3.49	0.956	2.32
ZR751 BREAST	1.16 ± 0.2	1.23 ± 0.071	1.14 ± 0.13	1.18 ± 0.23	1.2 ± 0.099	1.18 ± 0.25	1.26 ± 0.15	1.24 ± 0.22	3.47	1.47	2.96	3.96	1.6	3.57	–	1.2	2.62
ASKA SYNOVIAL	1.03 ± 0.06	1.05 ± 0.022	1.16 ± 0.088	1.17 ± 0.061	1.14 ± 0.073	1.27 ± 0.1	1.1 ± 0.097	1.09 ± 0.086	–	0.904	2.15	3.72	0.983	3.87	3.71	1.57	3.41
HCC1395 BREAST	1.16 ± 0.058	1.1 ± 0.044	1.16 ± 0.071	1.198 ± 0.0097	1.15 ± 0.16	1.18 ± 0.062	1.17 ± 0.13	1.04 ± 0.1	3.96	2.09	3.19	3.87	1.76	4.09	3.91	2.28	–
143B BONE	1.11 ± 0.099	1.11 ± 0.083	1.13 ± 0.06	1.14 ± 0.097	1.15 ± 0.15	1.13 ± 0.053	1.13 ± 0.11	1.12 ± 0.11	3.53	–	2.93	–	1.1	–	–	–	–
HMT3552 BREAST	1.03 ± 0.063	0.996 ± 0.11	1.02 ± 0.032	1.03 ± 0.065	1.205 ± 0.0096	1.17 ± 0.059	1.25 ± 0.031	1.14 ± 0.088	–	1.48	–	–	–	3.77	3.14	1.94	3.17
SCC47 HEADNECK	1.21 ± 0.072	1.17 ± 0.042	1.19 ± 0.017	1.19 ± 0.071	1.26 ± 0.054	1.21 ± 0.16	1.14 ± 0.019	1.08 ± 0.045	–	2.11	2.87	–	1.02	3.63	3	1.31	3.41
YAMATO SYNOVIAL	1.17 ± 0.066	1.33 ± 0.069	1.34 ± 0.11	1.31 ± 0.051	1.34 ± 0.029	1.29 ± 0.11	1.248 ± 0.0092	1.29 ± 0.051	3.92	0.991	2.87	4.26	1.69	4.62	4.25	1.2	–
CCK81 LARGE INTESTINE	0.883 ± 0.042	0.866 ± 0.092	0.835 ± 0.083	0.831 ± 0.093	0.77 ± 0.038	0.782 ± 0.081	0.784 ± 0.082	0.725 ± 0.043	–	1.63	–	2.67	–	2.59	1.85	2.51	2.3
HS578T BREAST	1.06 ± 0.25	1.04 ± 0.091	1.07 ± 0.14	1.12 ± 0.16	0.964 ± 0.055	1.03 ± 0.13	0.992 ± 0.17	1 ± 0.076	3.49	1.81	2.72	–	0.471	3.16	3.1	2.61	3.11
